# Measured values taken from patent US5484780A, “Angiotensin II antagonists” (Eli Lilly and Company, priority 1994, dated 1996).
# Target: T1, angiotensin-induced vasoconstriction (rabbit aorta) (Oryctolagus cuniculus, UniProt P34976)
# T1 construct: The thoracic aortas were removed and cleaned of excess fat and connective tissue; from tissue; host or cells: thoracic aorta rings of New Zealand white rabbits (animals from Hazelton)
# T1 sequence (P34976 1-359): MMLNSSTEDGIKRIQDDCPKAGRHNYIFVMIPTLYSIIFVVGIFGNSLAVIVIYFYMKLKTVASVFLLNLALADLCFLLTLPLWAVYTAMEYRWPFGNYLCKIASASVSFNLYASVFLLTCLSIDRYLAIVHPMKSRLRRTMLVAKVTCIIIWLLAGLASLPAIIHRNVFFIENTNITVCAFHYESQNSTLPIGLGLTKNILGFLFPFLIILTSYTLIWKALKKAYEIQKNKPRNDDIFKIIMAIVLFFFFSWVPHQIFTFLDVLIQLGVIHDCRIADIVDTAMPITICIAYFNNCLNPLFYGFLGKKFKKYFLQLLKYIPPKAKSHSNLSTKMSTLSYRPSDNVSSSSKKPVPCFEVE
# Assay: Rabbit Aorta Test System: antagonism of angiotensin II contraction of aortic rings
# Design: species or system New Zealand white rabbits
# Conditions: contraction to AII 10^-10 to 10^-7 M, 30 minutes incubation with compound; pA2 = -log KB
# Protocol: As previously discussed, the compounds of Formula I are potent effective antagonists of angiotensin II. The ability of representative compounds of Formula I to block angiotensin II receptor binding was determined using the adrenal glomerulosa assay. The ability to antagonize angiotensin-induced vasoconstriction was evaluated in the rabbit aorta test system.
# New Zealand white rabbits (Hazelton, 2-3 kg) were sacrificed by cervical dislocation. The thoracic aortas were removed and cleaned of excess fat and connective tissue. Rings of tissue (3 mm wide) were mounted in 10 ml tissue baths between 2 L-shaped stainless steel hooks. The lower hook was attached to a stationary rod. The upper hook was attached to a force displacement transducer (Grass model FT.03). The bath chambers were maintained at 37° C., aerated with 95% 02 /5% C02, and contained physiological solution of the following composition (mM): NaCl, 117; glucose, 5.6; NaH2 PO4, 1.0; MgS04, 0.7; KCl, 5.2; CaCl2, 1.8; NaHCO3, 26; and phentolamine HCl, 0.003.
# Rings were equilibrated for 1 hour with 2 g of tension. During the equilibration period, the tissues were washed by overflow every 15 minutes. Rings were then exposed to 10^-8 M angiotensin II (AII) and were allowed to contract until a steady state was reached. Tissues were then washed every 15 minutes for 1 hour. This was repeated every hour until the AII response stabilized. A cumulative concentration response curve to AII (10^-10 to 10^-7 M) was then obtained. At the conclusion of the concentration response curve, tissues were washed every 2 minutes until baseline tension was reached, then every 15 minutes for 30 minutes. Compounds were added in a volume of 10 μl DMSO and allowed to incubate for 30 minutes before repeating the concentration response curve to AII. Contractions to AII were expressed as a percent of the maximum contraction obtained in the control curve (the first AII concentration response curve). EC50 's (concentration that contracted the tissues to 1/2 the control maximum) for each curve were calculated using a 4 parameter logistics model (NonLin, SAS Institute). Potency data for each compound tested are expressed as the pA2 (defined as-log KB, where KB =[molar concentration of antagonist]/[(EC50 AII with antagonist/EC50 AII without antagonist)-1]).
Kb [nM],Rabbit Aorta (pA2),Structure (SMILES)
2,–,CCCCCC[C@H](C(=O)N1C[C@@H](Oc2ccc(OCCCC)cc2)C[C@H]1C(=O)O)n1cnc(NC(=O)c2ccccc2S(=O)(=O)O)c1 [Example 50]
12.6,–,CCCCCC[C@H](C(=O)N1C[C@@H](Oc2ccc(OCC(C)C)cc2)C[C@H]1C(=O)O)n1cnc(NC(=O)c2ccccc2S(=O)(=O)O)c1 [Example 51]
3.98,–,CCCCCC[C@H](C(=O)N1C[C@@H](Oc2ccc(OC(C)(C)C)cc2)C[C@H]1C(=O)O)n1cnc(NC(=O)c2ccccc2S(=O)(=O)O)c1 [Example 52]
10,–,CCCCCC[C@H](C(=O)N1C[C@@H](Oc2ccc(OC(F)(F)F)cc2)C[C@H]1C(=O)O)n1cnc(NC(=O)c2ccccc2S(=O)(=O)O)c1 [Example 53]
2.51,–,CCCCCC[C@H](C(=O)N1C[C@@H](Oc2ccc(OC3CCCC3)cc2)C[C@H]1C(=O)O)n1cnc(NC(=O)c2ccccc2S(=O)(=O)O)c1 [Example 54]
0.398,–,CCCCCC[C@H](C(=O)N1C[C@@H](Oc2ccc(OCC3CC3)cc2)C[C@H]1C(=O)O)n1cnc(NC(=O)c2ccccc2S(=O)(=O)O)c1 [Example 55]
31.6,–,CCCCCC[C@H](C(=O)N1C[C@@H](Oc2ccc(OCC3CCCCC3)cc2)C[C@H]1C(=O)O)n1cnc(NC(=O)c2ccccc2S(=O)(=O)O)c1 [Example 56]
0.316,–,CCCCCC[C@H](C(=O)N1C[C@@H](Oc2ccc(OCC(=O)O)cc2)C[C@H]1C(=O)O)n1cnc(NC(=O)c2ccccc2S(=O)(=O)O)c1 [Example 57]
0.794,–,CCCCCC[C@H](C(=O)N1C[C@@H](Oc2ccc(OC(C)(C)C(=O)O)cc2)C[C@H]1C(=O)O)n1cnc(NC(=O)c2ccccc2S(=O)(=O)O)c1 [Example 58]
0.631,–,CCCCCC[C@H](C(=O)N1C[C@@H](Oc2ccc3c(c2)OCO3)C[C@H]1C(=O)O)n1cnc(NC(=O)c2ccccc2S(=O)(=O)O)c1 [Example 59]
15.8,–,CCCCCC[C@H](C(=O)N1C[C@@H](Oc2ccc(OC)c(OC)c2)C[C@H]1C(=O)O)n1cnc(NC(=O)c2ccccc2S(=O)(=O)O)c1 [Example 60]
3.16,–,CCCCCC[C@H](C(=O)N1C[C@@H](Oc2ccc3ccccc3c2)C[C@H]1C(=O)O)n1cnc(NC(=O)c2ccccc2S(=O)(=O)O)c1 [Example 61]
1,–,CCCCCC[C@H](C(=O)N1C[C@@H](Oc2ccc3ccc(OC)cc3c2)C[C@H]1C(=O)O)n1cnc(NC(=O)c2ccccc2S(=O)(=O)O)c1 [Example 62]
1.58,–,CCCCCC[C@H](C(=O)N1C[C@@H](Oc2ccc3ccc(C(=O)O)cc3c2)C[C@H]1C(=O)O)n1cnc(NC(=O)c2ccccc2S(=O)(=O)O)c1 [Example 63]
2000,–,CCCCCC[C@H](C(=O)N1C[C@@H](Oc2cccc3ccccc23)C[C@H]1C(=O)O)n1cnc(NC(=O)c2ccccc2S(=O)(=O)O)c1 [Example 64]
0.501,–,CCCCCC[C@H](C(=O)N1C[C@@H](Oc2ccc3oc(C)cc3c2)C[C@H]1C(=O)O)n1cnc(NC(=O)c2ccccc2S(=O)(=O)O)c1 [Example 69]
0.501,–,CCCCCC[C@H](C(=O)N1C[C@@H](Oc2ccc3oc(C(=O)O)cc3c2)C[C@H]1C(=O)O)n1cnc(NC(=O)c2ccccc2S(=O)(=O)O)c1 [Example 70]
25.1,–,CCCCCC[C@H](C(=O)N1C[C@@H](Oc2ccc3oc4ccccc4c3c2)C[C@H]1C(=O)O)n1cnc(NC(=O)c2ccccc2S(=O)(=O)O)c1 [Example 71]
3.16,–,CCCCCC[C@H](C(=O)N1C[C@@H](Oc2ccc3sccc3c2)C[C@H]1C(=O)O)n1cnc(NC(=O)c2ccccc2S(=O)(=O)O)c1 [Example 72]
158,–,CCCCCC[C@H](C(=O)N1C[C@@H](Oc2cccnc2)C[C@H]1C(=O)O)n1cnc(NC(=O)c2ccccc2S(=O)(=O)O)c1 [Example 73]
100,–,CCCCCC[C@H](C(=O)N1C[C@@H](Oc2ccon2)C[C@H]1C(=O)O)n1cnc(NC(=O)c2ccccc2S(=O)(=O)O)c1 [Example 74]

Kb [nM],Rabbit Aorta (pA2),Structure (SMILES)
1,–,CCCCCC[C@H](C(=O)N1C[C@@H](Oc2ccc(OC)cc2)C[C@H]1C(=O)O)n1cnc(NC(=O)c2ccccc2-c2nn[nH]n2)c1 [Example 75]
31.6,–,CCCCCC[C@H](C(=O)N1C[C@@H](Oc2ccc(OC(C)(C)C)cc2)C[C@H]1C(=O)O)n1cnc(NC(=O)c2ccccc2-c2nn[nH]n2)c1 [Example 76]
1.58,–,CCCCCC[C@H](C(=O)N1C[C@@H](Oc2ccc(CC(=O)O)cc2)C[C@H]1C(=O)O)n1cnc(NC(=O)c2ccccc2-c2nn[nH]n2)c1 [Example 77]
3.16,–,CCCCCC[C@H](C(=O)N1C[C@@H](Oc2ccc(C(=O)O)cc2)C[C@H]1C(=O)O)n1cnc(NC(=O)c2ccccc2-c2nn[nH]n2)c1 [Example 78]
0.501,–,CCCCCC[C@H](C(=O)N1C[C@@H](Oc2ccc(OCC(=O)O)cc2)C[C@H]1C(=O)O)n1cnc(NC(=O)c2ccccc2-c2nn[nH]n2)c1 [Example 79]
1.58,–,CCCCCC[C@H](C(=O)N1C[C@@H](Oc2ccc(O)cc2)C[C@H]1C(=O)O)n1cnc(NC(=O)c2cccc(O)c2C(=O)O)c1 [Example 81]
0.316,–,CCCCCC[C@H](C(=O)N1C[C@@H](Oc2ccc(OC)cc2)C[C@H]1C(=O)O)n1cnc(NC(=O)c2cccc(O)c2C(=O)O)c1 [Example 82]
–,8.9,CCCCCC[C@H](C(=O)N1C[C@@H](Oc2ccc(OCC)cc2)C[C@H]1C(=O)O)n1cnc(NC(=O)c2cccc(O)c2C(=O)O)c1 [Example 83]
10,–,CCCCCC[C@H](C(=O)N1C[C@@H](Oc2ccc(OCCCC)cc2)C[C@H]1C(=O)O)n1cnc(NC(=O)c2cccc(O)c2C(=O)O)c1 [Example 84]
1.26,–,CCCCCC[C@H](C(=O)N1C[C@@H](Oc2ccc(C(=O)O)cc2)C[C@H]1C(=O)O)n1cnc(NC(=O)c2cccc(O)c2C(=O)O)c1 [Example 85]
0.794,–,CCCCCC[C@H](C(=O)N1C[C@@H](Oc2ccc(CC(=O)O)cc2)C[C@H]1C(=O)O)n1cnc(NC(=O)c2cccc(O)c2C(=O)O)c1 [Example 86]
31.6,–,CCCCCC[C@H](C(=O)N1C[C@@H](Oc2ccc(C#N)cc2)C[C@H]1C(=O)O)n1cnc(NC(=O)c2cccc(O)c2C(=O)O)c1 [Example 87]
6.31,–,CCCCCC[C@H](C(=O)N1C[C@@H](Oc2ccc3c(c2)CCC3)C[C@H]1C(=O)O)n1cnc(NC(=O)c2cccc(O)c2C(=O)O)c1 [Example 88]
31.6,–,CCCCCC[C@H](C(=O)N1C[C@@H](Oc2ccc3ccccc3c2)C[C@H]1C(=O)O)n1cnc(NC(=O)c2cccc(O)c2C(=O)O)c1 [Example 89]
20,–,CCCCCC[C@H](C(=O)N1C[C@@H](Oc2ccc(OC)c(OC)c2)C[C@H]1C(=O)O)n1cnc(NC(=O)c2cccc(O)c2C(=O)O)c1 [Example 90]
–,10.1,CCCCCCC(C(=O)N1C[C@@H](Oc2ccc(CP(=O)(O)O)cc2)C[C@H]1C(=O)O)n1cnc(NC(=O)c2ccccc2S(=O)(=O)O)c1 (some centres unmarked) [Example 91]
0.126,–,"CCCCCC[C@H](C(=O)N1C[C@@H](Oc2ccc(NS(C)(=O)=O)cc2)C[C@H]1C(=O)O)n1cnc(NC(=O)c2ccccc2S(=O)(=O)O)c1 [Example 92, 1-[1-oxo-2-[4-(2-sulfobenzoyl)amino-1H-imidazol-1-yl]octyl]-4-cis-[(4-N-methanesulfonamido)-phenoxy]-L-proline]"
–,8.9,"CCCCCC[C@H](C(=O)N1C[C@@H](Oc2ccc(NS(=O)(=O)C(F)(F)F)cc2)C[C@H]1C(=O)O)n1cnc(NC(=O)c2ccccc2S(=O)(=O)O)c1 [Example 93, (R)-1-[1-oxo-2-[4-(2-sulfobenzoyl)amino-1H-imidazol-1-yl]octyl]-4-(cis)-((4-N-triflouromethanesulfonamido)-phenoxy)-L-proline]"
0.251,–,"CCCCCC[C@H](C(=O)N1C[C@@H](Oc2ccc(N(C)S(C)(=O)=O)cc2)C[C@H]1C(=O)O)n1cnc(NC(=O)c2ccccc2S(=O)(=O)O)c1 [Example 94, (R)-1-[1-oxo-2-[4-(2-sulfobenzoyl)amino-1H-imidazol-1-yl]octyl]-4-(cis)-[(4-N,N-methyl-methanesulfonamido)-phenoxy]-L-proline]"
0.158,–,CCCCCC[C@H](C(=O)N1C[C@@H](Oc2ccc(CNS(C)(=O)=O)cc2)C[C@H]1C(=O)O)n1cnc(NC(=O)c2ccccc2S(=O)(=O)O)c1 [Example 95]
